In brackets after ≈: the same amount, converted by molar mass. Non-standard residues stand in square brackets, D forms with d. Residues, ends and D or L forms follow the SMILES beside them. ξ: configuration not given here. ξAhp(2) = CCCCCC(N)C(=O)O
What was measured:
E. coli ATCC 25922 [1] = assay: ROS generation, DCFH-DA; type: cell-based, Escherichia coli; details: 16 × 10^−6 M, E. coli ATCC 25922, DCFH-DA, 1 h; n = 3
Protocol: (§1) ROS accumulation levels were assessed by the fluorescent probe DCFH‐DA.^[ [63] ^] Logarithmic growth stage E. coli ATCC 25922 and S. aureus ATCC 29213 bacterial solutions were diluted to OD600 = 0.4 in PBS (pH = 7.4, 10 × 10^−3 M), followed by incubation with DCFH‐DA final concentration of 10 × 10^−6 M) for 30 min at 37 °C. Subsequently, the bacterial suspensions were then mixed with different concentrations of nano‐short peptides dilutions in equal volumes in a 96‐well plate and continued to incubate for 1 h (37 °C). Finally, the fluorescence intensity was measured using a microplate reader (excitation λ = 488 nm, emission λ = 525 nm).

MRSA 43300 = type: cell-based, Methicillin-Resistant Staphylococcus aureus
How it was run: (§2)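 Serial peptide dilutions (0.2% BSA diluent) were challenged with equal volumes of logarithmic-phase bacteria in MHB, final density 0.5–1 × 10⁶ CFU mL^−1. Incubation lasted 20–22 h at 37 °C; inhibition was judged from optical absorbance at 492 nm against untreated and medium-only wells.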

S. aureus ATCC 29213 [2] = assay: Cell wall permeability, NPN; type: cell-based, Staphylococcus aureus; details: n = 3
Protocol: The NPN fluorescent probe was used to assess the permeability of cell wall.^[ [64] ^] A logarithmic phase culture of S. aureus ATCC 29213 bacterial solution was diluted to OD600 = 0.2 in a 5 × 10^−3 M HEPES buffer (pH = 7.4 with 5 × 10^−3 M glucose). Following the addition of NPN (final concentration: 10 × 10^−6 M), the mixture was incubated for 30 min in the dark. Subsequently, the bacterial suspension was mixed with an equal volume of nano‐short peptides solution at different concentrations. […] Fluorescence intensity was measured (excitation λ = 350 nm, emission λ = 420 nm) using a microplate reader. The percentage of outer membrane permeability was calculated as: Permeability% = [(F treated – F negative control)/(F positive control – F negative control)] × 100%.

E. faecalis 29212 = type: cell-based, Enterococcus faecalis
How it was run: as §2

S. aureus ATCC 29213 [3] = assay: ROS generation, DCFH-DA; type: cell-based, Staphylococcus aureus; details: 16 × 10^−6 M, S. aureus ATCC 29213, DCFH-DA, 1 h; n = 3
Protocol: as §1

ICR female mice = assay: In vivo toxicity of N4; set-up: species or system mouse
Protocol: Animal experiments were conducted in accordance with the Guide for the Care and Use of Laboratory Animals at Northeast Agricultural University (NEAU‐[2011]‐9). The experimental subjects comprised female ICR mice, aged 6 to 8 weeks and weighing 19 ± 1.1 g, sourced from Liaoning Changsheng Biotechnology Co. Thirty‐two mice were randomly divided into four groups after a 3‐day pre‐feeding period, followed by intraperitoneal injections of N4 at different doses (5, 10, and 20 mg kg^−1) to assess its toxicity, with saline treatment serving as the control group. Following injection, behavioral alterations were observed over a brief duration (0.5, 1, 4, and 8 h), and then body weight changes were monitored for 3 days. On the third day, the mice were euthanized via ether inhalation anesthesia, and blood samples were collected from the orbital vein for biochemical analysis, which was used to determine the levels of ALT, ALP, BUN, CREA, and TBIL. Subsequently, the liver, spleen, and kidneys were taken to determine organ coefficients. The relative organ weights were calculated using the formula: relative organ weight (%) = (organ weight/mouse body weight) × 100%. These organs were then fixed in 4% paraformaldehyde, following established protocols, for subsequent histological examination.^[ [70] ^]

E. coli ATCC 25922 [4] = assay: Cytoplasmic membrane permeability, ONPG hydrolysis; type: cell-based, Escherichia coli; details: within 1800 s
Source text: The ONPG hydrolysis assay was employed to determine the effects of nano‐short peptides on permeability of E. coli ATCC 25922 cytoplasmic membranes. The detailed experimental procedures followed the previously published methodology.^[ [30] ^]

S. aureus ATCC 29213 [5] = assay: Drug resistance assay, 30 serial passages; type: cell-based, Staphylococcus aureus; details: S. aureus ATCC 29213, 30 successive passages at sub-MIC concentrations; gentamicin by day 17
Protocol: (§3) The potential resistance development of nano‐short peptides was evaluated through 30 serial passages of E. coli ATCC 25922 and S. aureus ATCC 29213 in sub‐MIC conditions,^[ [38] ^] using gentamicin as control.

S. aureus ATCC 29213 [6] = assay: Live/dead staining, PI and SYTO 9; type: cell-based, Staphylococcus aureus
Source text: Finally, a fluorescence microscope (EVOS FL Auto, Massachusetts, USA) was used to observe the fluorescence images of the bacteria under different background colors and representative pictures were taken.

E. coli ATCC 25922 [7] = assay: Time-kill kinetics; type: cell-based, Escherichia coli; details: 1 × MIC, PBS pH 7.4; n = 3
Protocol: Samples were collected at pre‐determined time points post‐exposure, serially diluted, and plated on Mueller‐Hinton agar (MHA) for viable colony counting after 18–24 h incubation at 37 °C. Untreated bacterial suspensions served as controls.

E. coli ATCC 25922 [8] = assay: Drug resistance assay, 30 serial passages; type: cell-based, Escherichia coli; details: E. coli ATCC 25922, 30 successive passages at sub-MIC concentrations
Protocol: as §3

in vitro = details: female, ICR, mouse, serum
Protocol: N4 was incubated with serum isolated from mice for different durations (0, 1, 2, 4, 8, 12 h), followed by RP‐HPLC analyses to determine the retention rate.^[ [48] ^]

[9] = 5, 10, 20 mg kg^−1 intraperitoneal, day 3, p > 0.05, n = 8

CCCCCC(N)C(=O)NC(CCCCC)C(=O)NC(CCCCC)C(=O)NC(CCCCC)C(=O)N[C@H](CCCNC(=N)N)C(=O)N[C@@H](CCCNC(=N)N)C(=O)N[C@@H](CCCNC(=N)N)C(=O)N1CCC[C@H]1C(=O)O (some centres unmarked) [Peptide B4] (H-[ξAhp(2)][ξAhp(2)][ξAhp(2)][ξAhp(2)][dR]RRP-OH; N-terminus assumed)
increase of ROS content vs untreated bacteria (E. coli ATCC 25922 [1]): 1.51 fold | MIC, MRSA 43300 (MRSA 43300): 16 µM (≈ 17.5 µg/mL) | cell wall permeabilization, ciprofloxacin as the reference (S. aureus ATCC 29213 [2]; 8 × 10^−6 M): 19.49% | cell wall permeabilization, ciprofloxacin as the reference (S. aureus ATCC 29213 [2]; 16 × 10^−6 M): 37.80% | MIC, E. faecalis 29212 (E. faecalis 29212): 32 µM (≈ 35 µg/mL) | increase of ROS content vs untreated bacteria (S. aureus ATCC 29213 [3]): 1.38 fold

N=C(N)NCCC[C@H](NC(=O)[C@@H](CCCNC(=N)N)NC(=O)[C@H](Cc1cccc2ccccc12)NC(=O)[C@H](Cc1cccc2ccccc12)NC(=O)[C@H](Cc1cccc2ccccc12)NC(=O)[C@@H](N)Cc1cccc2ccccc12)C(=O)N[C@@H](CCCNC(=N)N)C(=O)N1CCC[C@H]1C(=O)O (stereo in doubt) [Peptide N4]
clinical signs (ICR female mice; 20 mg kg^−1 intraperitoneal, ICR female mice, only two mice, within 1 h, n = 8): mild and transient symptoms | body weight vs control group (ICR female mice; 5, 10, 20 mg kg^−1 intraperitoneal, 3 days, p > 0.05, n = 8): no significant differences | histopathology of liver, spleen, kidney (H&E) (ICR female mice; 5, 10, 20 mg kg^−1 intraperitoneal, day 3): did not inflict histopathological damage | levels of ALT, ALP, BUN, CREA and TBIL vs control group (ICR female mice; [9]): no significant differences | relative weights of the liver, spleen, and kidney (ICR female mice; [9]): remained comparable | increase of ROS content vs untreated bacteria (E. coli ATCC 25922 [1]): 2.26 fold | MIC, MRSA 43300 (MRSA 43300): 4 µM (≈ 5.49 µg/mL) | increase in absorbance at 420 nm (ONPG hydrolysis) (E. coli ATCC 25922 [4]; 8 μM): approximately 2 fold | increase in absorbance at 420 nm (ONPG hydrolysis) (E. coli ATCC 25922 [4]; 16 μM): ~5 fold | increase in MIC values after serial passage (S. aureus ATCC 29213 [5]): remained largely unchanged | red (PI)/green (SYTO 9) fluorescence overlap rate (S. aureus ATCC 29213 [6]; 16 × 10^−6 M N4, S. aureus ATCC 29213, ImageJ): 90.74% | red (PI)/green (SYTO 9) fluorescence overlap rate (S. aureus ATCC 29213 [6]; 256 × 10^−6 M N4, S. aureus ATCC 29213, ImageJ): 98.65% | cell wall permeabilization, ciprofloxacin as the reference (S. aureus ATCC 29213 [2]; 8 × 10^−6 M): 48.48% | cell wall permeabilization, ciprofloxacin as the reference (S. aureus ATCC 29213 [2]; 16 × 10^−6 M): 110.54% | time to eliminate all E. coli ATCC 25922 cells (E. coli ATCC 25922 [7]): ≤ 1500 s | MIC, E. faecalis 29212 (E. faecalis 29212): 4 µM (≈ 5.49 µg/mL) | increase of ROS content vs untreated bacteria (S. aureus ATCC 29213 [3]): 1.83 fold | increase in MIC values after serial passage (E. coli ATCC 25922 [8]): remained largely unchanged | remaining at 4 h (in vitro): > 50% | remaining at 12 h (in vitro): 8.1%

From article PMC12677699, “Utilizing Proteolytic‐Resistant Nano‐Short Peptide Based on Naphthyl Tail‐Anchored to Combat Bacterial Infections” (Advanced Science, 2025)
